Measured values published in patent US5686486A, “4-hydroxy-benzopyran-2-ones and 4-hydroxy-cycloalkyl[b]pyran-2-ones useful to treat retroviral infections” (priority 1995, dated 1997).
Read-outs that look alike come from different tables or passages of the source.

Target: HIV-1 protease (Human immunodeficiency virus type 1 group M subtype B, UniProt P04585)
Test: biochemical
Conditions: for inhibition at 1 µM: read-out: HIV-1 Protease % Inhib, dose 1.000 uM; for inhibition at 100 µM: read-out: HIV-1 Protease % Inhib, dose 100.000 uM; for inhibition at 0.41 µM: read-out: HIV-1 Protease % Inhib, dose 0.410 uM; for inhibition at 1.23 µM: read-out: HIV-1 Protease % Inhib, dose 1.230 uM; for inhibition at 3.7 µM: read-out: HIV-1 Protease % Inhib, dose 3.700 uM; for inhibition at 11 µM: read-out: HIV-1 Protease % Inhib, dose 11.000 uM; for inhibition at 33 µM: read-out: HIV-1 Protease % Inhib, dose 33.000 uM; for inhibition at 0.123 µM: read-out: HIV-1 Protease % Inhib, dose 0.123 uM
In short: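 Biotinylated, FITC-labeled peptide substrate (20 μl of 0.2 μM) incubated with HIV-1 protease (10 μl of 0.1 μM) and compound in 0.1 M sodium acetate pH 5.5, 1.0 M NaCl, 0.05% NP-40, 1 h, room temperature, dark. Streptavidin beads then capture uncleaved substrate; filtered labeled product read by fluorescence, giving percent inhibition.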

[1] = read-out: HIV-1 Protease % Inhib, dose 10.000 uM
[2] = read-out: HIV-1 Protease % Inhib, dose 1.100 uM
[3] = read-out: HIV-1 Protease % Inhib, dose 3.300 uM
[4] = read-out: HIV-1 Protease % Inhib, dose 30.000 uM
[5] = dose 1.100 uM, read-out: HIV-1 Protease % Inhib
[6] = dose 3.300 uM, read-out: HIV-1 Protease % Inhib
[7] = dose 10.000 uM, read-out: HIV-1 Protease % Inhib
[8] = dose 30.000 uM, read-out: HIV-1 Protease % Inhib
[9] = dose 0.370 uM, read-out: HIV-1 Protease % Inhib
[10] = read-out: HIV-1 Protease % Inhib, dose 0.370 uM

Row | inhibition at 1.1 µM [5] | inhibition at 3.3 µM [6] | inhibition at 10 µM [7] | inhibition at 30 µM [8] | SMILES | inhibition at 10 µM [1] | other results
1 | – | – | – | – | CCC(CCc1ccccc1)c1c(O)c2ccccc2oc1=O (centres unmarked) [Example 155, 3-(1-Ethyl-3-phenyl-propyl)4-hydroxy-chromen-2-one] | 74.9% | inhibition at 1 µM: 15.4%; inhibition at 100 µM: 91.9%
2 | – | – | – | – | CCC(CCCc1ccccc1)c1c(O)c2ccccc2oc1=O (centres unmarked) [Example 156, 3-(1-Ethyl4-phenyl-butyl)-4-hydroxy-chromen-2-one] | 33.6% | inhibition at 1 µM: 17.1%; inhibition at 100 µM: 63.7%
3 | – | – | – | – | COC(=O)C(C(=O)OC)C(c1ccccc1)c1c(O)c2ccccc2oc1=O (centres unmarked) [Example 157, 2-((4-Hydroxy-2-oxo-2H-chromen-3-yl)-phenyl-methyl)-malonic acid dimethyl ester] | < 10% | inhibition at 1 µM: < 10%; inhibition at 100 µM: 64%
4 | – | – | – | – | O=c1oc2ccccc2c(O)c1C1CCOc2ccccc21 (centres unmarked) [Example 158, 4-Hydroxy-3',4'-dihydro-2'H-[3,4]bichromenyl-2-one] | 26.7% | inhibition at 1 µM: < 10%; inhibition at 100 µM: 93.4%
5 | – | – | – | – | O=c1oc2ccccc2c(O)c1C(CCO)c1ccccc1 (centres unmarked) [Example 160, 4-Hydroxy-3-(3-hydroxy-1-phenyl-propyl)-chromen-2-one] | – | inhibition at 0.41 µM: < 10%; inhibition at 1.23 µM: < 10%; inhibition at 3.7 µM: < 10%; inhibition at 11 µM: 14.2%; inhibition at 33 µM: 40.4%; inhibition at 100 µM: 82.6%
6 | – | – | – | – | COc1ccc2c(O)c(C(c3cccc(NC(=O)OCc4ccccc4)c3)C3CC3)c(=O)oc2c1 (centres unmarked) [Example 166, Carbamic acid, [3-[cyclopropyl(4-hydroxy-7-methoxy-2-oxo-2H-1-benzopyran-3-yl)methyl]phenyl]-, phenylmethyl ester] | – | inhibition at 0.41 µM: < 10%; inhibition at 1.23 µM: 13.2%; inhibition at 3.7 µM: 33.4%; inhibition at 11 µM: 58.9%; inhibition at 33 µM: 89.1%; inhibition at 100 µM: 100%
7 | – | – | – | – | CCCOc1ccc2c(O)c(C(CC)c3ccccc3)c(=O)oc2c1 (centres unmarked) [Example 169, Coumarin, 4-hydroxy-3-(1-phenylpropyl)-7-propoxy] | 76.8% | inhibition at 1.1 µM [2]: 13.1%; inhibition at 3.3 µM [3]: 44.4%; inhibition at 30 µM [4]: 99.9%
8 | 31.9% | 73.5% | 97.8% | 110% | COCCOCCC1CCCCCc2c1oc(=O)c(C(c1ccccc1)C1CC1)c2O (centres unmarked) [Example 172, 3-(Cyclopropylphenylmethyl)-5,6,7,8,9,10-hexahydro-4-hydroxy-10-[2-(2-methoxyethoxy)ethyl]-2H-cycloocta[b]pyran-2-one] | – | –
9 | 15% | 36.5% | 76.7% | 97.2% | O=c1oc2c(c(O)c1C(c1ccccc1)C1CC1)CCCCCC2CO (centres unmarked) [Example 173, 3-(Cyclopropylphenylmethyl)-5,6,7,8,9,10-hexahydro-4-hydroxy-10-(hydroxymethyl)-2H-cycloocta[b]pyran-2-one] | – | –
10 | 19.4% | 55.5% | 88.5% | 105% | CC(C)(O)C1CCCCCc2c1oc(=O)c(C(c1ccccc1)C1CC1)c2O (centres unmarked) [Example 175, 3-(Cyclopropylphenylmethyl)-5,6,7,8,9,10-hexahydro-4-hydroxy-10-(1-hydroxy-1-methylethyl)-2H-cycloocta[b]pyran-2-one] | – | –
11 | 31.3% | 67.7% | 94.1% | 109% | COCCOCCC1CCCCc2c1oc(=O)c(C(c1ccccc1)C1CC1)c2O (centres unmarked) [Example 180, 3-(Cyclopropylphenylmethyl)-6,7,8,9-tetrahydro-4-hydroxy-9-[2-(2-methoxyethoxy)ethyl]-cyclohepta[b]pyran-2(5H)-one] | – | –
12 | 10.4% | 35.1% | 66.6% | 79.3% | COCCOCCOCCC1CCCCc2c1oc(=O)c(C(c1ccccc1)C1CC1)c2O (centres unmarked) [Example 181, 3-(Cyclopropylphenylmethyl)-6,7,8,9-tetrahydro-4-hydroxy-9-[2-[2-(2-methoxyethoxy)ethoxy]ethyl]-cyclohepta[b]pyran-2(5H)-one] | – | –
13 | 29.2% | 64.6% | 88.7% | 101% | O=c1oc2c(c(O)c1C(c1ccccc1)C1CC1)CCCCC2CCC1OCCO1 (centres unmarked) [Example 186, 3-(Cyclopropylphenylmethyl)-9-[2-(1,3-dioxolan-2-yl)ethyl]-6,7,8,9-tetrahydro-4-hydroxy-cyclohepta[b]pyran-2(5H)-one] | – | –
14 | 32.9% | 68% | 90% | 90.2% | O=c1oc2c(c(O)c1C(c1ccccc1)C1CC1)CCCCC2CC1CCCOC1 (centres unmarked) [Example 187, 3-(Cyclopropylphenylmethyl)-6,7,8,9-tetrahydro-4-hydroxy-9-[(tetrahydro-2H-pyran-3-yl)methyl]-cyclohepta[b]pyran-2(5H)-one] | – | inhibition at 0.37 µM [9]: 10.6%
15 | 35.9% | 79.3% | 96% | 102% | O=c1oc2c(c(O)c1C(c1ccccc1)C1CC1)CCCCC2CC1CCCCO1 (centres unmarked) [Example 190, 3-(Cyclopropylphenylmethyl)-6,7,8,9-tetrahydro4-hydroxy-9-[(tetrahydro-2H-pyran-2-yl)methyl]-cyclohepta[b]pyran-2(5H)-one] | – | –
16 | 55% | 93.3% | 101% | 100% | O=c1oc2c(c(O)c1C(c1ccccc1)C1CC1)CCCCC2CC1CCOC1 (centres unmarked) [Example 191, 3-(Cyclopropylphenylmethyl)-6,7,8,9-tetrahydro-4-hydroxy-9-[(tetrahydro-3-furanyl)methyl]-cyclohepta[b]pyran-2(5H)-one] | – | inhibition at 0.37 µM [9]: 16.9%
17 | 24.9% | 68.8% | 102% | 102% | CC(O)CC1CCCCc2c1oc(=O)c(C(c1ccccc1)C1CC1)c2O (centres unmarked) [Example 192, 3-(Cyclopropylphenylmethyl)-6,7,8,9-tetrahydro-4-hydroxy-9-(2-hydroxypropyl)-cyclohepta[b]pyran-2(5H)-one] | – | –
18 | – | – | – | – | C[C@H](NC(=O)OC(C)(C)C)C(=O)Nc1cccc(C(c2c(O)c3c(oc2=O)CCCCCC3)C2CC2)c1 (stereo partly drawn) [Example 198, Carbamic acid, [2-[[3-[cyclopropyl(5,6,7,8,9,10-hexahydro-4-hydroxy-2-oxo-2H-cycloocta[b]pyran-3-yl)methyl]phenyl]amino]-1-(S)-methyl-2-oxyethyl]-, 1,1-dimethylethyl ester] | 115% | inhibition at 0.123 µM: 67.1%; inhibition at 0.37 µM [10]: 91.9%; inhibition at 1.1 µM [2]: 107%; inhibition at 3.3 µM [3]: 111%; inhibition at 30 µM [4]: 116%
19 | – | – | – | – | CC(C)(C)OC(=O)NCCCC(=O)Nc1cccc(C(c2c(O)c3c(oc2=O)CCCCCC3)C2CC2)c1 (centres unmarked) [Example 201, Carbamic acid, [4-[[3-[cyclopropyl(5,6,7,8,9,10-hexahydro,-hydroxy-2-oxo-2H-cycloocta[b]pyran-3-yl)methyl]phenyl]amino]-4-oxybutyl]-, 1,1-dimethylethyl ester] | 100% | inhibition at 0.123 µM: 31.2%; inhibition at 0.37 µM [10]: 60.1%; inhibition at 1.1 µM [2]: 80%; inhibition at 3.3 µM [3]: 95.4%; inhibition at 30 µM [4]: 107%
20 | – | – | – | – | CC(C)(C)OC(=O)N1CCC[C@H]1C(=O)Nc1cccc(C(c2c(O)c3c(oc2=O)CCCCCC3)C2CC2)c1 (stereo partly drawn) [Example 202, 1-(S)-Pyrrolidinecarboxylic acid, 2-[[[3-[cyclopropyl(5,6,7,8,9,10-hexahydro-4-hydroxy-2-oxo-2H-cycloocta[b]pyran-3-yl)methyl]phenyl]amino]carbonyl]-, 1,1-dimethylethyl ester] | 93.8% | inhibition at 0.123 µM: 20.1%; inhibition at 0.37 µM [10]: 48.1%; inhibition at 1.1 µM [2]: 73.1%; inhibition at 3.3 µM [3]: 88.1%; inhibition at 30 µM [4]: 94.4%
21 | – | – | – | – | C[C@@H](NC(=O)OC(C)(C)C)C(=O)Nc1cccc(C(c2c(O)c3c(oc2=O)CCCCCC3)C2CC2)c1 (stereo partly drawn) [Example 203, Carbamic acid, [2-[[3-[cyclopropyl(5,6,7,8,9,10-hexahydro-4-hydroxy-2-oxo-2H-cycloocta[b]pyran-3-yl)methyl]phenyl]amino]-1-(R)-methyl-2-oxyethyl]-, 1,1-dimethylethyl ester] | 104% | inhibition at 0.123 µM: 15.6%; inhibition at 0.37 µM [10]: 55.8%; inhibition at 1.1 µM [2]: 81.3%; inhibition at 3.3 µM [3]: 94.3%; inhibition at 30 µM [4]: 94.3%

Row | SMILES | inhibition at 1.1 µM [5] | inhibition at 3.3 µM [6] | inhibition at 10 µM [7] | inhibition at 30 µM [8] | inhibition at 10 µM [1] | other results
22 | COCCC1CCCCc2c1oc(=O)c(C(c1ccccc1)C1CC1)c2O (centres unmarked) [Example 193, 3-(Cyclopropylphenylmethyl)-6,7,8,9-tetrahydro-4-hydroxy-9-(methoxyethyl)-cyclohepta[b]pyran-2(5H)-one] | 35% | 70.4% | 97.7% | 105% | – | –
